Data: US20240279220A1, “INDOLE COMPOUNDS AND METHODS OF USE” (Genzyme Corporation, priority 2021, published 2024)

Tested on: NBD1/3D
Assay: Aggregation analysis using differential static light scattering (DSLS), NBD1 thermal stability
Type: binding, Human
Details: ΔTagg versus DMSO control; compound at 100 μM
Protocol: Purified recombinant NBD1 was produced using previously described methods (A. Schmidt, J. L. Mendoza, P. J. Thomas (2011) Biochemical and Biophysical Approaches to Probe CFTR Structure (365-376) M. D. Amaral, K. Kunzelmann (eds.), Cystic Fibrosis, Methods in Molecular Biology 741, Springer Science+Business Media). The effect of test compounds on thermal stability of NBD1 was evaluated by differential static light scattering (DSLS) using the Harbinger Stargazer-384 instrument (Epiphyte Three, Toronto, Canada).
Test compounds were dissolved and diluted to desired concentrations in 100% DMSO. The compounds or DMSO controls (100 nL) were stamped into wells of a […] low volume optical plate (Corning Inc., Corning, NY) using the Echo 555 acoustic liquid handler (Labcyte Inc., San Jose, CA).
NBD1 protein was diluted to 0.2 mg/ml in S200 buffer (50 mM Tris-HCl, 150 mM NaCl, 5 mM MgCl2, 2 mM ATP, 2 mM DTT, pH7.6) containing 1% glycerol. 10 uL of protein solution was aliquoted into the 384-well plate harboring the test compounds and 10 uL mineral oil was overlayed onto the protein solution, using the epMotion robotic liquid handler (Eppendorf North America, Hauppauge, NY). After placing into the Stargazer instrument, the plate was heated at 1° C. per minute to 70° C. Images were captured from 25° C. to 70° C. every 0.5° C. At the end of the experiment run, instrument software integrated image files and analyzed data automatically. A […] regression curve was generated for each well, representing the increase in light scattering over time. A temperature of aggregation (Tagg) was calculated based on the inflection point of the curve. To better compare data across experiments the average Tagg for DMSO control wells was calculated and subtracted from values for wells containing compounds to obtain a “ΔTagg” value. These ΔTagg values reflect stabilizing efficacy of the compounds.

In the case of CC(c1cnc(-c2cc(Oc3c(F)cc4[nH]ccc4c3CCP(C)(C)=O)ccc2F)[nH]1)c1cccc(CCC(=O)O)c1F (single isomer, unassigned) [Example 135B, 3-(3-(1-(2-(5-((4-(2-(dimethylphosphoryl)ethyl)-6-fluoro-1H-indol-5-yl)oxy)-2-fluorophenyl)-1H-imidazol-5-yl)ethyl)-2-fluorophenyl)propanoic acid], the “DSLS NBD1/3D Human Stability delta-T (° C.) @ 100 (μM)” value (shortened to “DSLS NBD1/3D Human Stability delta-T”) is reported as “C (C: ≤5° C.)”.
In the case of CC(c1c[nH]c(-c2cc(Oc3c(F)cc4[nH]ccc4c3S(C)(=N)=O)ccc2F)n1)c1cccc(CCC(=O)O)c1F (single isomer, unassigned) [Example 136A, 3-(2-fluoro-3-(1-(2-(2-fluoro-5-((6-fluoro-4-(S-methylsulfonimidoyl)-1H-indol-5-yl)oxy)phenyl)-1H-imidazol-4-yl)ethyl)phenyl)propanoic acid], the “DSLS NBD1/3D Human Stability delta-T” value is reported as “B (B: 5-10° C.)”.
With CC(c1c[nH]c(-c2cc(Oc3c(F)cc4[nH]ccc4c3S(C)(=N)=O)ccc2F)n1)c1cccc(CCC(=O)O)c1F (single isomer, unassigned) [Example 136B, 3-(2-fluoro-3-(1-(2-(2-fluoro-5-((6-fluoro-4-(S-methylsulfonimidoyl)-1H-indol-5-yl)oxy)phenyl)-1H-imidazol-4-yl)ethyl)phenyl)propanoic acid] the “DSLS NBD1/3D Human Stability delta-T” value was “A (A: T ≥ 10° C.)”.
With CC(c1c[nH]c(-c2cc(Oc3c(F)cc4[nH]ccc4c3S(C)(=N)=O)ccc2F)n1)c1cccc(CCC(=O)O)c1F (single isomer, unassigned) [Example 136D, 3-(2-fluoro-3-(1-(2-(2-fluoro-5-((6-fluoro-4-(S-methylsulfonimidoyl)-1H-indol-5-yl)oxy)phenyl)-1H-imidazol-4-yl)ethyl)phenyl)propanoic acid] the “DSLS NBD1/3D Human Stability delta-T” value was “B (B: 5-10° C.)”.
With CC(Cc1cccc(C(C)c2cnc(-c3cc(Oc4c(F)cc5[nH]ccc5c4F)ccc3F)[nH]2)c1F)C(=O)O (single isomer, unassigned) [Example 137A, 3-(3-(1-(2-(5-((4,6-difluoro-1H-indol-5-yl)oxy)-2-fluorophenyl)-1H-imidazol-5-yl)ethyl)-2-fluorophenyl)-2-methylpropanoic acid] the “DSLS NBD1/3D Human Stability delta-T” value was “B (B: 5-10° C.)”.
In the case of CC(Cc1cccc(C(C)c2cnc(-c3cc(Oc4c(F)cc5[nH]ccc5c4F)ccc3F)[nH]2)c1F)C(=O)O (single isomer, unassigned) [Example 137B, 3-(3-(1-(2-(5-((4,6-difluoro-1H-indol-5-yl)oxy)-2-fluorophenyl)-1H-imidazol-5-yl)ethyl)-2-fluorophenyl)-2-methylpropanoic acid], the “DSLS NBD1/3D Human Stability delta-T” value is reported as “B (B: 5-10° C.)”.
CC(Cc1cccc(C(C)c2cnc(-c3cc(Oc4c(F)cc5[nH]ccc5c4F)ccc3F)[nH]2)c1F)C(=O)O (single isomer, unassigned) [Example 137C, 3-(3-(1-(2-(5-((4,6-difluoro-1H-indol-5-yl)oxy)-2-fluorophenyl)-1H-imidazol-5-yl)ethyl)-2-fluorophenyl)-2-methylpropanoic acid] was tested, and the “DSLS NBD1/3D Human Stability delta-T” value was “C (C: ≤5° C.)”.
In the case of Cc1c(Oc2ccc(F)c(-c3ncc(C(C)c4cccc([C@@H]5C[C@@H]5C(=O)O)c4F)[nH]3)c2)c(F)cc2[nH]ccc12 (single isomer, unassigned) [Example 138A, cis-2-(2-fluoro-3-(1-(2-(2-fluoro-5-((6-fluoro-4-methyl-1H-indol-5-yl)oxy)phenyl)-1H-imidazol-5-yl)ethyl)phenyl)cyclopropane-1-carboxylic acid], the “DSLS NBD1/3D Human Stability delta-T” value is reported as “C (C: ≤5° C.)”.
Cc1c(Oc2ccc(F)c(-c3ncc(C(C)c4cccc([C@@H]5CC5C(=O)O)c4F)[nH]3)c2)c(F)cc2[nH]ccc12 (single isomer, unassigned) [Example 138B, cis-2-(2-fluoro-3-(1-(2-(2-fluoro-5-((6-fluoro-4-methyl-1H-indol-5-yl)oxy)phenyl)-1H-imidazol-5-yl)ethyl)phenyl)cyclopropane-1-carboxylic acid] was tested, and the “DSLS NBD1/3D Human Stability delta-T” value was “C (C: ≤5° C.)”.
In the case of Cc1c(Oc2ccc(F)c(-c3ncc(C(C)c4cccc([C@@H]5C[C@@H]5C(=O)O)c4F)[nH]3)c2)c(F)cc2[nH]ccc12 (single isomer, unassigned) [Example 138C, cis-2-(2-fluoro-3-(1-(2-(2-fluoro-5-((6-fluoro-4-methyl-1H-indol-5-yl)oxy)phenyl)-1H-imidazol-5-yl)ethyl)phenyl)cyclopropane-1-carboxylic acid], the “DSLS NBD1/3D Human Stability delta-T” value is reported as “C (C: ≤5° C.)”.
For Cc1c(Oc2ccc(F)c(-c3ncc(C(C)c4cccc([C@H]5C[C@H]5C(=O)O)c4F)[nH]3)c2)c(F)cc2[nH]ccc12 (single isomer, unassigned) [Example 138D, cis-2-(2-fluoro-3-(1-(2-(2-fluoro-5-((6-fluoro-4-methyl-1H-indol-5-yl)oxy)phenyl)-1H-imidazol-5-yl)ethyl)phenyl)cyclopropane-1-carboxylic acid], the “DSLS NBD1/3D Human Stability delta-T” value was “C (C: ≤5° C.)”.
With Cc1c(Oc2ccc(F)c(-c3ncc(C(C)c4cccc([C@H]5C[C@@H]5C(=O)O)c4F)[nH]3)c2)c(F)cc2[nH]ccc12 (single isomer, unassigned) [Example 139G, trans-2-(2-fluoro-3-(1-(2-(2-fluoro-5-((6-fluoro-4-methyl-1H-indol-5-yl)oxy)phenyl)-1H-imidazol-5-yl)ethyl)phenyl)cyclopropane-1-carboxylic acid] the “DSLS NBD1/3D Human Stability delta-T” value was “C (C: ≤5° C.)”.
Cc1c(Oc2ccc(F)c(-c3ncc(C(C)c4cccc([C@H]5CC5C(=O)O)c4F)[nH]3)c2)c(F)cc2[nH]ccc12 (single isomer, unassigned) [Example 139H, trans-2-(2-fluoro-3-(1-(2-(2-fluoro-5-((6-fluoro-4-methyl-1H-indol-5-yl)oxy)phenyl)-1H-imidazol-5-yl)ethyl)phenyl)cyclopropane-1-carboxylic acid] was tested, and the “DSLS NBD1/3D Human Stability delta-T” value was “C (C: ≤5° C.)”.
In the case of Cc1c(Oc2ccc(F)c(-c3ncc(C4(c5cccc(CCC(=O)O)c5)CCOC(C)C4)[nH]3)c2)c(F)cc2[nH]ccc12 (single isomer, unassigned) [Example 151, 3-(3-(4-(2-(2-fluoro-5-((6-fluoro-4-methyl-1H-indol-5-yl)oxy)phenyl)-1H-imidazol-5-yl)-2-methyltetrahydro-2H-pyran-4-yl)phenyl)propanoic acid], the “DSLS NBD1/3D Human Stability delta-T” value is reported as “B (B: 5-10° C.)”.
C[C@H]1C[C@](c2cccc(CCC(=O)O)c2)(c2cnc(-c3cc(Oc4c(F)cc5[nH]ccc5c4F)ccc3F)[nH]2)CCO1 (single isomer, unassigned) [Example 152] was tested, and the “DSLS NBD1/3D Human Stability delta-T” value was “B (B: 5-10° C.)”.
In the case of Cc1c(Oc2ccc(F)c(-c3nc(C4(c5cccc(CCC(=O)O)c5)CCOC(C)C4)c[nH]3)c2)c(F)cc2[nH]ccc12 (single isomer, unassigned) [Example 154, 3-(3-(4-(2-(2-fluoro-5-((6-fluoro-4-methyl-1H-indol-5-yl)oxy)phenyl)-1H-imidazol-4-yl)-2-methyltetrahydro-2H-pyran-4-yl)phenyl)propanoic acid], the “DSLS NBD1/3D Human Stability delta-T” value is reported as “A (A: T ≥ 10° C.)”.
In the case of Cc1nc(-c2cc(Oc3c(F)cc4[nH]ccc4c3F)ccc2F)[nH]c1C(O)c1cccc(CCC(=O)O)c1F (single isomer, unassigned) [Example 179, 3-(3-((2-(5-((4,6-difluoro-1H-indol-5-yl)oxy)-2-fluorophenyl)-4-methyl-1H-imidazol-5-yl)(hydroxy)methyl)-2-fluorophenyl)propanoic acid], the “DSLS NBD1/3D Human Stability delta-T” value is reported as “B (B: 5-10° C.)”.
